Our source for the melting point and Ki values is patent US20090069370A1, “AZACYCLYLISOQUINOLINONE AND ISOINDOLINONE DERIVATIVES AS HISTAMINE-3 ANTAGONISTS” (Wyeth, priority 2007, published 2009).

Data set [1] addresses T1, Human Histamine H3 Receptor (Homo sapiens, UniProt Q9Y5N1).
T1 construct: expressed in transfected cells; host or cells: HEK293T cells, stably transfected; membrane preparation
In words: Methyl histamine binding in human histamine H3 receptor cell line. Conditions: membranes of stably transfected HEK293T cells; radioligand 1 nM; Ki from IC50 by Cheng-Prusoff. In outline: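 Radioligand (1 nM final) displacement on membranes (10 μg) from stably transfected HEK293T cells, 1 h at 30 °C in 50 mM Tris pH 7.5, compounds ~100 μM–100 pM, nonspecific with 10 uM clobenpropit, filtration and scintillation counting. IC50 from four-parameter fit; Ki via Cheng-Prusoff.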

T1 sequence (Q9Y5N1 whole entry): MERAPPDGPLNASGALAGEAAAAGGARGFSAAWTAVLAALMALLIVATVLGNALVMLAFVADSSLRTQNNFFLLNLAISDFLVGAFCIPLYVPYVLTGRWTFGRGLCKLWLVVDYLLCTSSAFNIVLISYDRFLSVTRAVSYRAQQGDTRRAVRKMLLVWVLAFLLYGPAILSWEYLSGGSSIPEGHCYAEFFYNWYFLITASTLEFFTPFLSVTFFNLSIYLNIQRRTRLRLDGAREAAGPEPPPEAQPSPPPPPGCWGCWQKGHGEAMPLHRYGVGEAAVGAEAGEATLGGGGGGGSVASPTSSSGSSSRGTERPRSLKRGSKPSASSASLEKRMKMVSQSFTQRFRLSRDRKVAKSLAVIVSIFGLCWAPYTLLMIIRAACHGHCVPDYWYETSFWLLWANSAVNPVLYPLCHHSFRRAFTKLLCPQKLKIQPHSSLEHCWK

With `O=C(O)c1ccc(Oc2ccc3c(c2)CCN([C@@H]2CCN(C4CCCC4)C2)C3=O)cc1` [Example 36, (R)-4-(2-(1-cyclopentylpyrrolidin-3-yl)-1-oxo-1,2,3,4-tetrahydro-isoquinolin-6-yloxy)benzoic acid], the melting point (in general, the temperature, or range, at which the solid turns liquid) lay within 170 to 173 °C. Besides, the Ki (as a rule, the dissociation constant of the complex between target and ligand, obtained from inhibition or displacement) in data set [1] is 50.1 to 100 nM.
The like results for `O=C(O)c1ccc(Oc2ccc3c(c2)CCN(C2CCN(C4CCC4)CC2)C3=O)cc1` [Example 2, 4-{[2-(1-cyclobutylpiperidin-4-yl)-1-oxo-1,2,3,4-tetrahydroiso-quinolin-6-yl]oxy}benzoic acid] were, in that order, 255 to 256 °C and 50.1 to 100 nM.
